Patent US11612629B2, “Pharmaceutical composition for preventing or treating muscle diseases, containing ginseng berry extract as active ingredient” (Holistic Bio Co., Ltd., priority 2018, dated 2023)

Columns and labels:
[1] = tested on: muscle atrophy induced mice; test: Muscle weight (gastrocnemius, quadriceps) per body weight in immobilization-induced muscle atrophy mice; format: in vivo, C57BL/6 mice
Procedure: (§1) First, 5-week-old male C57BL/6 mice were adapted to the animal laboratory environment for 7 days and then divided into 5 groups according to the experimental conditions. Particularly, the experimental groups were divided into the non-treated control group (normal group, Cont), the group induced with muscle atrophy (induction group, IM), the positive control group induced with muscle atrophy and treated with 370 mg/kg of HMB (beta-hydroxy beta-methlybutyrate) (HMB treated group, HMB 370), the group induced with muscle atrophy and treated with low dose (100 mg/kg) of the Panax ginseng berry extract of Example 1 (Panax ginseng berry extract treated group, GBE 100), and the group induced with muscle atrophy and treated with high dose (200 mg/kg) of the Panax ginseng berry extract of Example 1 (Panax ginseng berry extract treated group, GBE 200). Muscle atrophy was induced by immobilization in which a fixation device made of 1.5 mL microfuge tube, clip and velcro tape was applied to one hind leg of a mouse according to ‘Disease models & mechanisms, 8(9), 1059-1069, 2015’. HMB and the Panax ginseng berry extract were dissolved in 0.5% carboxymethyl cellulose (CMC) and administered to the mouse orally once a day for 14 days from the day of the leg immobilization. After 14 days, the gastrocnemius and quadriceps of the hind leg were extracted, weighed, and standardized based on the body weight.

[2] = tested on: muscle atrophy induced mice; test: Muscle fiber size and cross-sectional area of gastrocnemius (H&E, image J) in muscle atrophy induced mice; format: in vivo, C57BL/6 mice; conditions: 14 days
Procedure: as §1
Whether the Panax ginseng berry extract alleviates the muscle fiber cross-sectional area reduction caused by muscle atrophy was confirmed by the following method. Particularly, the gastrocnemius tissue extracted in Experimental Example 1-1 was fixed with 4% paraformaldehyde, stained with hematoxylin and eosin (H&E), and the muscle fiber cross-sectional area was quantified using image J software.

Question: Which results are given for `CC(C)(O)CC(=O)O` [HMB, beta-hydroxy beta-methlybutyrate]?
Answer: weight of the quadriceps reduced compared to the normal group ([1]; 370 mg/kg orally once a day for 14 days, induction group (IM) about 33%): about 17%; weight of the gastrocnemius reduced compared to the normal group ([1]; 370 mg/kg orally once a day for 14 days, induction group (IM) about 40%): about 24%; protective ability of muscle atrophy (muscle weight) ([1]; 370 mg/kg orally, 14 days, gastrocnemius and quadriceps): about 16%; muscle atrophy protection, muscle fiber cross-sectional area ([2]; 370 mg/kg orally): about 13%; muscle fiber cross-sectional area decreased compared to the normal group ([2]; 370 mg/kg orally, induction group about 60%): about 47%; reduction in muscle fiber size (FIG. 3) ([2]; gastrocnemius, HMB 370 mg/kg, extract 100 and 200 mg/kg orally): alleviated
